Test results from PMC6154694, “Absorption, Metabolic Stability, and Pharmacokinetics of Ginger Phytochemicals” (Molecules : A Journal of Synthetic Chemistry and Natural …, 2017).

Key:
[1] = pH dependent kinetic solubility in hydrochloride, citrate and phosphate buffers; assay type: physicochemical; details: 23 °C, kinetic from dmso stock, tested 10 to 100 µM, n = 2
Description: Calibration standards were prepared by spiking 5 μL of DMSO stock solutions into 995 μL acetonitrile/buffer (1:1) mixture. Following centrifugation (10,000 rpm, 10 min, 25 °C) the reaction samples were diluted 1:1 with acetonitrile.

[2] = Mouse pharmacokinetic study of oral GE with and without ketoconazole, plasma with and without β-glucuronidase treatment; assay type: in vivo, male mice (C57BL6J); details: for Concentration Ratio (Total/Free) of GE Phenolics: GE administered group; for Concentration Ratio (Total/Free) of GE Phenolics / concentration at 0 h / concentration at 0.087 h / concentration at 0.167 h / concentration at 0.25 h / concentration at 0.5 h / concentration at 1 h / concentration at 2 h / concentration at 3 h / concentration at 4 h / concentration at 6 h / concentration at 8 h / concentration at 12 h: mouse plasma; for AUC(0-t) / Cmax / Tmax / concentration at 0 h / concentration at 0.087 h / concentration at 0.167 h / concentration at 0.25 h / concentration at 0.5 h / concentration at 1 h / concentration at 2 h / concentration at 3 h / concentration at 4 h / concentration at 6 h / concentration at 8 h / concentration at 12 h: male, C57BL6J; for AUC(0-t) / Cmax / Tmax: mouse, plasma, po, 250 mg/kg
Description: A solution formulation of GE was prepared by using 5% ethanol, 5% Tween 80, 40% polyethylene glycol, and 50% corn oil. The dose volume was 10 mL/kg and the dose administered was 250 mg/kg GE.
Pharmacokinetic study in male mice (C57BL6J, Harlan Laboratories, Indianapolis, IN, USA) was run with 36 animals in each group at a GE dose of 250 mg/kg with a dose volume of 10 mL/kg. One group was given GE alone and in the second group GE was co-administered with KTZ (50 mg/kg). A terminal sampling design was used to collect blood samples at 0 (pre-dose), 0.08, 0.16, 0.25, 0.5, 1, 2, 3, 4, 6, 8, and 12 h. At each time, 1 mL of blood was collected in ethylenediaminetetraacetic acid di-potassium salt (K2EDTA) tubes (BD Biosciences, Franklin Lakes, NJ, USA). Plasma was separated by centrifugation of samples at 4000 rpm for 10 min and stored below −60 °C till bioanalysis. All experiments were performed with approval from the Institutional Animal Care and Use Committee (IACUC, approval code: A14031). All animals were acclimatized for five days before dosing in the experimental area. Food and water was provided ad libitum throughout the study period. Animals were marked and housed (three per cage, n = 36 per group) in polypropylene cages and maintained in controlled environmental conditions with 12 h light and dark cycles. The temperature and humidity of the room was maintained between 22 ± 3 °C and 30% to 50%, respectively, and approximately 10–12 fresh air change cycles per hour.
To confirm the presence of GE glucuronide conjugates, plasma (100 μL) was treated with βgd (20 μL, 500 units) and incubated at 37 °C for 1 h. Each sample was analyzed twice with and without β-gd treatment. Samples without gde treatment were diluted with 20 μL of buffer. Total (conjugated + free) and free ginger phenolics data were reported following bioanalysis.
All in vitro and in vivo samples were processed by protein precipitation method. An aliquot (100 μL) of the sample was spiked with 200 μL of acetonitrile containing dihydrocapsaicin as internal standard (IS) and vortex mixed for 3 min. The tubes were centrifuged at 12,000 rpm for 10 min and an aliquot of supernatant was transferred into autosampler vials for analysis. The stock solutions of 6G, 8G, 10G, and 6S were prepared in ACN/water (70:30) at 1 mg/mL. A calibration curve (CC) range of 2–2000 ng/mL was employed for the quantification of analytes and IS concentration was 150 ng/mL for each analysis. The CC consisted of blank, blank with IS and seven non-zero calibration standards. The calibration standards were within ±15% of the nominal concentration and lower limit of quantification was within ±20% of nominal. All samples were analyzed using liquid chromatography tandem mass spectrometry (LC-MS/MS) method (Agilent 6410 series, Santa Clara, CA, USA). A positive ionization mode with multiple reaction monitoring (MRM, m/z Q1/Q3) of 6G (m/z 277.1/177.1, retention time (RT) 2.0 min), 8G (m/z 305.1/177.1, RT 4.0 min), 10G (m/z 333.1/177.1, RT 7.7 min), 6S (m/z 277.1/137.1, RT 5.1 min), and IS (m/z 308.2/137.1, RT 3.4 min) was employed. The ion spray voltage was set at 3500 V, ionization temperature was set to 300 °C and drying gas flow rate was 10 L/min. Data acquisition and quantitation were performed using Mass Hunter software (Agilent Technologies, Wilmington, DE, USA). Separation was achieved using HP1100 series LC (Agilent Technologies) with an Agilent Zorbax reversed-phase (SB-C18, 2.1 × 50 mm, 5.0 μm) column. A gradient method was employed to separate the individual GE phenolics using mobile phase A (0.1% formic acid in water) and mobile phase B (Acetonitrile). The gradient elution method with 50% B at 0 min, 90% B at 5 min, held for 2.1 min, back to 50% B at 7.1 min with a flow rate of 0.2 mL/min. An injection volume of 2 μL was used for analysis. […]

[3] = Liver microsomal stability, rat; assay type: in vitro ADME, IGS Sprague-Dawley rat; details: protein 0.5 mg/mL
Description: Pooled liver microsomes from CD1 mouse, IGS Sprague-Dawley rat, Beagle dog, and mixed gender human were used for assays. Incubations (1 mL) consisted of liver microsomes (0.5 mg/mL), NADPH (1 mM) and 100 mM sodium phosphate buffer (pH 7.4). Following pre-incubation (10 min, 37 °C), reactions were initiated by spiking ACN/DMSO (80:20) stock solutions of GE phenolics (5 μL, 10 μM). Samples (100 μL) were withdrawn at 0, 5, 10, 15, 20 and 30 min and quenched with 200 μL acetonitrile containing internal standard. Concomitant NADPH-free control incubations were prepared similarly.

[4] = 250 mg/kg GE + 50 mg/kg KTZ oral, +KTZ −βgd

- solubility at 2 h ([1]; 100 mM citrate buffer, aqueous buffer, pH 4, citrate buffer): < 10 µM
- solubility at 2 h ([1]; 100 mM phosphate buffer, aqueous buffer, pH 7.4, phosphate buffer): < 10 µM
- solubility at 2 h ([1]; simulated gastric fluid, pH 2, hydrochloride buffer): < 10 µM
- AUClast Ratio ([2]; +KTZ +βgd, reference GE group co-administered with KTZ untreated with βgd): 14
- AUClast Ratio ([2]; +KTZ +βgd, reference GE group untreated with βgd): 110
- AUClast Ratio ([2]; +KTZ −βgd, reference GE group untreated with βgd): 8
- Concentration Ratio (Total/Free) of GE Phenolics ([2]; 0 h): 0
- Concentration Ratio (Total/Free) of GE Phenolics ([2]; 0.087 h): 48
- Concentration Ratio (Total/Free) of GE Phenolics ([2]; 0.167 h): 19
- Concentration Ratio (Total/Free) of GE Phenolics ([2]; 0.25 h): 0
- Concentration Ratio (Total/Free) of GE Phenolics ([2]; 0.5 h): 83
- Concentration Ratio (Total/Free) of GE Phenolics ([2]; 1 h): 1
- Concentration Ratio (Total/Free) of GE Phenolics ([2]; 2 h): 16
- Concentration Ratio (Total/Free) of GE Phenolics ([2]; 3 h): 0
- Concentration Ratio (Total/Free) of GE Phenolics ([2]; 4 h): 0
- Concentration Ratio (Total/Free) of GE Phenolics ([2]; 6 h): 0
- Concentration Ratio (Total/Free) of GE Phenolics ([2]; 8 h): 0
- Concentration Ratio (Total/Free) of GE Phenolics ([2]; 12 h): 0
- AUC(0-t) ([2]; 250 mg/kg GE oral, −βgd): 1.92 ng·h/mL
- Cmax ([2]; 250 mg/kg GE oral, −βgd): 3.88 ng/mL
- Tmax ([2]; 250 mg/kg GE oral, −βgd): 10 min
- AUC(0-t) [2, 4]: 15.1 ng·h/mL
- Cmax [2, 4]: 12.4 ng/mL
- Tmax [2, 4]: 60 min
- concentration at 0 h ([2]; 250 mg/kg GE oral, 0 h, −βgd): 0 ng/mL
- concentration at 0.087 h ([2]; 250 mg/kg GE oral, 0.087 h, −βgd): 3.17 ± 2.56 ng/mL
- concentration at 0.167 h ([2]; 250 mg/kg GE oral, 0.167 h, −βgd): 4.04 ± 5.37 ng/mL
- concentration at 0.25 h ([2]; 250 mg/kg GE oral, 0.25 h, −βgd): 0.39 ± 0.55 ng/mL
- concentration at 0.5 h ([2]; 250 mg/kg GE oral, 0.5 h, −βgd): 1.26 ± 1.78 ng/mL
- concentration at 1 h ([2]; 250 mg/kg GE oral, 1 h, −βgd): 0.67 ± 0.95 ng/mL
- concentration at 2 h ([2]; 250 mg/kg GE oral, 2 h, −βgd): 0.38 ± 0.54 ng/mL
- concentration at 3 h ([2]; 250 mg/kg GE oral, 3 h, −βgd): 0 ng/mL
- concentration at 4 h ([2]; 250 mg/kg GE oral, 4 h, −βgd): 0 ng/mL
- concentration at 6 h ([2]; 250 mg/kg GE oral, 6 h, −βgd): 0 ng/mL
- concentration at 8 h ([2]; 250 mg/kg GE oral, 8 h, −βgd): 0.05 ± 0.08 ng/mL
- concentration at 12 h ([2]; 250 mg/kg GE oral, 12 h, −βgd): 0.37 ± 0.23 ng/mL
- concentration at 0 h ([2]; 250 mg/kg GE with 50 mg/kg ketoconazole oral, 0 h, −βgd): 0 ng/mL
- concentration at 0.087 h ([2]; 250 mg/kg GE with 50 mg/kg ketoconazole oral, 0.087 h, −βgd): 0.05 ± 0.07 ng/mL
- concentration at 0.167 h ([2]; 250 mg/kg GE with 50 mg/kg ketoconazole oral, 0.167 h, −βgd): 0.94 ± 1.33 ng/mL
- concentration at 0.25 h ([2]; 250 mg/kg GE with 50 mg/kg ketoconazole oral, 0.25 h, −βgd): 0 ng/mL
- concentration at 0.5 h ([2]; 250 mg/kg GE with 50 mg/kg ketoconazole oral, 0.5 h, −βgd): 18600 ng/mL
- concentration at 1 h ([2]; 250 mg/kg GE with 50 mg/kg ketoconazole oral, 1 h, −βgd): 12.5 ± 17.6 ng/mL
- concentration at 2 h ([2]; 250 mg/kg GE with 50 mg/kg ketoconazole oral, 2 h, −βgd): 75900 ng/mL
- concentration at 3 h ([2]; 250 mg/kg GE with 50 mg/kg ketoconazole oral, 3 h, −βgd): 2.33 ± 3.3 ng/mL
- concentration at 4 h ([2]; 250 mg/kg GE with 50 mg/kg ketoconazole oral, 4 h, −βgd): 0 ng/mL
- concentration at 6 h ([2]; 250 mg/kg GE with 50 mg/kg ketoconazole oral, 6 h, −βgd): 0 ng/mL
- concentration at 8 h ([2]; 250 mg/kg GE with 50 mg/kg ketoconazole oral, 8 h, −βgd): 0 ng/mL
- concentration at 12 h ([2]; 250 mg/kg GE with 50 mg/kg ketoconazole oral, 12 h, −βgd): 0 ng/mL
- remaining at 0.5 h, 10 µM ([3]; IGS Sprague-Dawley, pooled liver microsomes, pH 7.4, substrate 10 µM, n = 2, read-out: % Remaining at 30 min): 1%
- Intrinsic Clearance ([3]; rat liver microsomes, substrate 10 µM, 45 mg protein/g liver): 13.0 mL/min/g Liver
SMILES: CCCCC/C=C/C(=O)CCc1ccc(O)c(OC)c1 [6S, 6-shogaol]
